Results reported in ChEMBL document CHEMBL5352416, “Benzo[b]thiophene-2-carboxamides as novel opioid receptor agonists with potent analgesic effect and reduced constipation” (Eur J Med Chem, 2022).
The source made the active and inactive calls. The rule behind the calls is not given here.

Columns and labels:
[1] = biological target: T1, Mu-type opioid receptor (Homo sapiens, UniProt P35372); experiment: Agonist activity at human mu opioid receptor expressed in CHO-K1 cells coexpressing Galpha15 assessed as increase in fluorescence of [ca2+]i measured for 1.52 sec by FLIPR calcium assay; assay type: functional, cell-based
T1 sequence (P35372 whole entry): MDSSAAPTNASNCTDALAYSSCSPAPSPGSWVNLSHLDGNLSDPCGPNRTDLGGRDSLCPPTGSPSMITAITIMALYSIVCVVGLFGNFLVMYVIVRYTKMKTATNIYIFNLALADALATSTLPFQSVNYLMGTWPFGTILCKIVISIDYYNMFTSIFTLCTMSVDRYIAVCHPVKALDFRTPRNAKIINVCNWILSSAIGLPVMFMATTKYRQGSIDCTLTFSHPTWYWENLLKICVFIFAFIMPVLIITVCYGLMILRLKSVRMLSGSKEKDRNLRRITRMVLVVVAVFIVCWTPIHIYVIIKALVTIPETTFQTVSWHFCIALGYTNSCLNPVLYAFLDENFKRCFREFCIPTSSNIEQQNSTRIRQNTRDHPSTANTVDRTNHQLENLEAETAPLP

[2] = biological target: T1, Mu-type opioid receptor; experiment: Agonist activity at human mu opioid receptor expressed in CHO-K1 cells coexpressing Galpha15 assessed as increase in fluorescence of [ca2+]i by measuring maximum efficacy measured for 1.52 sec by FLIPR calcium assay relative to control; assay type: functional, cell-based; conditions: filed as agonist
[3] = test system: Mus musculus; experiment: Antinociceptive activity in thermal stimulated C57BL/6 mouse at 4.4 mg/kg, sc measured at 30 to 180 mins by tail flick test; assay type: functional, organism-based; conditions: time 30-180 min
[4] = test system: Mus musculus; experiment: Antinociceptive activity in thermal stimulated C57BL/6 mouse assessed as tail flick latency at 4.4 mg/kg, sc measured at 30 to 60 mins by tail flick test; assay type: functional, organism-based; conditions: time 30-60 min
[5] = test system: Mus musculus; experiment: Antinociceptive activity in CFA-induced mechanical allodynia C57BL/6 mouse model at 4.4 mg/kg, sc administered twice daily pretreated with CFA for 2 days followed by compound addition and measured at 3 to 7 days by von frey test; assay type: functional, organism-based; conditions: time 3-7 day
[6] = test system: Mus musculus; experiment: Antinociceptive activity in thermal stimulated C57BL/6 mouse assessed as drug tolerance at 126.4 to 252.8 microg/kg, sc administered twice per day for 5 days and measured immediately by tail flick test; assay type: functional, organism-based; conditions: dose 126.4-252.8 µg/kg, time 5.0 day
[7] = test system: Mus musculus; experiment: Induction of motivational effect in C57BL/6 mouse assessed as increase in reward behaviour at 2.5 mg/kg, sc administered for 4 days and measured on day 6 by CPP analysis; assay type: functional, organism-based; conditions: time 6.0 day

`CN(C)C(CNC(=O)c1sccc1Cl)c1ccccc1Cl` (stereo not given) gave an EC50 [1] of 1060 nM and an Emax [2] of 50.7%.

`CN(C)C(CNC(=O)c1cc2ccccc2s1)c1ccccc1Cl` (stereo not given) gave an EC50 [1] of 3.04 nM and an Emax [2] of 66.7%.

With `CN(C)C(CNC(=O)c1cc2ccccc2s1)c1ccc(Cl)cc1` (stereo not given) the EC50 [1] was 1260 nM and the Emax [2] was 112%.

`Cc1ccc2cc(C(=O)NCC(c3ccccc3Cl)N(C)C)sc2c1` (stereo not given) gave an EC50 [1] of 1890 nM and an Emax [2] of 58.4%.

`CN(C)C(CNC(=O)c1cc2ccccc2s1)c1cccc(Cl)c1` (stereo not given) showed an EC50 [1] of 2310 nM and an Emax [2] of 130%.

With `CN1CC[C@]23c4c5ccc(O)c4O[C@H]2[C@@H](O)C=C[C@H]3[C@H]1C5` the Activity [3] was “Active”, the Activity [4] was “Active” and the Activity [5] was “inactive”. The Activity [6] was “Active” and the Activity [7] was “Active”.

In the case of `CN(C)C(CNC(=O)c1cc2ccccc2s1)C1CCCCC1` (stereo not given), the EC50 [1] is reported as 11100 nM and the Emax [2] is reported as 91%.

`Cc1ccccc1C(CNC(=O)c1cc2ccccc2s1)N(C)C` (stereo not given) was tested, and the EC50 [1] was 6480 nM and the Emax [2] was 90.8%.

`CN(C)C(CNC(=O)c1cc2ccccc2s1)c1ccc(Br)cc1` (stereo not given) showed an EC50 [1] of 150 nM and an Emax [2] of 103%.

`CN(C)C(CNC(=O)c1cc2ccccc2s1)c1cccc(F)c1` (stereo not given) was tested, and the EC50 [1] was 1490 nM and the Emax [2] was 106%.

`CN(C)C(CNC(=O)c1cc2ccccc2s1)c1ccccc1` (stereo not given) gave an EC50 [1] of 3860 nM and an Emax [2] of 99.5%.
